Test results as given in paper PMC12716025, “Plectranthus‐derived Abietanes as Protein Kinase C‐δ Activators: In Silico Design, Human Serum Albumin Interaction, and Stability Evaluation” (Chemistry & Biodiversity, 2025).

Biological target: T1, Human serum albumin (HSA) (Homo sapiens, UniProt P02768)
T1 construct: gene ALB; Essentially fatty acid-free HSA, type A1887 (Sigma-Aldrich)
Assay: intrinsic tryptophan fluorescence quenching (binding constant Ka, […]°C), synchronous fluorescence, thermal shift (Tm +[…]°C)

T1 sequence (P02768 25-609): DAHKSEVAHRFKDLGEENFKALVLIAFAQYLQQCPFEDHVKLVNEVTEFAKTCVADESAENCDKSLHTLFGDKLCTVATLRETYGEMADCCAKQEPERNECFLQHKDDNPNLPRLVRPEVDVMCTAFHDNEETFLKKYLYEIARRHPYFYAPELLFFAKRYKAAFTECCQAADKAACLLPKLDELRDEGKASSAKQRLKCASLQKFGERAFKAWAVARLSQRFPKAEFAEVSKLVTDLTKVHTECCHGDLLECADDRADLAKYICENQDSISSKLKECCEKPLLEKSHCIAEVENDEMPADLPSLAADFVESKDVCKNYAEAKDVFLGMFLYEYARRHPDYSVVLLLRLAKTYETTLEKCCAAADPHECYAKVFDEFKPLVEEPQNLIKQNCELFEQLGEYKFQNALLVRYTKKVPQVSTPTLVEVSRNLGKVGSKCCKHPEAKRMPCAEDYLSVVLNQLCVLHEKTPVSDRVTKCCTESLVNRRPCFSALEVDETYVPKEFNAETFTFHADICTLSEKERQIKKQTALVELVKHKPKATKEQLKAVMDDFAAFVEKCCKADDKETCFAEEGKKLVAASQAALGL

CC(=O)O[C@H]1C2=C(C(=O)C(O)=C(C(C)C)C2=O)[C@@]2(C)CCCC(C)(C)[C@@H]2[C@@H]1O [compound 1, 7α-acetoxy-6β-hydroxyroyleanone]
Kd: 15.4 µM
